Measurements from ChEMBL document CHEMBL2150850, “Recent advances in the development of selective human MAO-B inhibitors: (hetero)arylidene-(4-substituted-thiazol-2-yl)hydrazines” (Eur J Med Chem, 2012).

Columns and labels:
Homo sapiens = species on record: Homo sapiens; test: Selectivity ratio of IC50 for human MAO-A to IC50 for human MAO-B
[1] = target: T1, Amine oxidase [flavin-containing] B (Homo sapiens, UniProt P27338); test: biochemical; type: cell-based, BTI-TN-5B1-4
T1 sequence (P27338 whole entry): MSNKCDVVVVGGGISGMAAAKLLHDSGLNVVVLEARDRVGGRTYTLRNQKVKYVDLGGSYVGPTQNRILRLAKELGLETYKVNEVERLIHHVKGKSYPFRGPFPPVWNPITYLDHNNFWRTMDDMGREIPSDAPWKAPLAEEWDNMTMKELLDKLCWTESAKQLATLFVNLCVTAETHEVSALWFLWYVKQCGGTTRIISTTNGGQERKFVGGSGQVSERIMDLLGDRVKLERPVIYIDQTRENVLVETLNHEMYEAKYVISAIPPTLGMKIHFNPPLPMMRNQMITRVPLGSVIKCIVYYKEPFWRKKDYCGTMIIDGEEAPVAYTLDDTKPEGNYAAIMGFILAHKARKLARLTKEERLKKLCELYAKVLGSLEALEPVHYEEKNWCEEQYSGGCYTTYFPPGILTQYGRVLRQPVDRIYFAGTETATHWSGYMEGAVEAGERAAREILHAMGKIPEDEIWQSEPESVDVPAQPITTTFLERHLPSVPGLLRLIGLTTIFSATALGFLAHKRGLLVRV
Description: Inhibition of human MAO-B expressed in baculovirus infected BTI-TN-5B1-4 cells using p-tyramine as substrate incubated for 15 mins prior to substrate addition measured for 15 mins by Amplex red assay

[2] = target: T2, Amine oxidase [flavin-containing] A (Homo sapiens, UniProt P21397); test: Inhibition of human MAO-A expressed in baculovirus infected BTI-TN-5B1-4 cells using p-tyramine as substrate incubated for 15 mins prior to substrate addition measured for 15 mins by Amplex red assay
T2 sequence (P21397 whole entry): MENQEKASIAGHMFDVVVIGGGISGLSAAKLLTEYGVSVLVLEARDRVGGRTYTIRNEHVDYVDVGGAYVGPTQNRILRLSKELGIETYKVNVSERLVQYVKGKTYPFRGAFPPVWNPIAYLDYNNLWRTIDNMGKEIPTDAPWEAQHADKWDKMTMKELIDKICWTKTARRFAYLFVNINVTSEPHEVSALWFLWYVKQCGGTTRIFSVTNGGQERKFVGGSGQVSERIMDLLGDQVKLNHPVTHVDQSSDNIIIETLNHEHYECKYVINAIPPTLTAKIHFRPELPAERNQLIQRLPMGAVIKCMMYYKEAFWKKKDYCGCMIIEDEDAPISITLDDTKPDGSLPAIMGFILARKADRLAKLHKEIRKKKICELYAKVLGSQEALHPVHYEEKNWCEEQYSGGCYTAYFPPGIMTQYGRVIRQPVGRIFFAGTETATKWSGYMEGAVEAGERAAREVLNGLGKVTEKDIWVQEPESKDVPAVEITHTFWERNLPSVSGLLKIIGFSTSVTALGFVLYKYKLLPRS

[3] = target: T2, Amine oxidase [flavin-containing] A; test: Inhibition of human MAO-A expressed in baculovirus infected BTI-TN-5B1-4 cells using p-tyramine as substrate at 100 uM incubated for 15 mins prior to substrate addition measured for 15 mins by Amplex red assay
[4] = target: T1, Amine oxidase [flavin-containing] B; test: Reversible inhibition of human MAO-B expressed in baculovirus infected BTI-TN-5B1-4 cells using p-tyramine as substrate at 70 uM incubated for 30 mins prior to substrate addition followed by 100 fold dilution measured for 15 mins by Amplex red assay; conditions: bti-tn-5b1-4, 0.25 h
[5] = target: T1, Amine oxidase [flavin-containing] B; test: Reversible inhibition of human MAO-B expressed in baculovirus infected BTI-TN-5B1-4 cells using p-tyramine as substrate at 20 nM incubated for 30 mins prior to substrate addition followed by 100 fold dilution measured for 15 mins by Amplex red assay; conditions: bti-tn-5b1-4, 0.25 h, 0.02 µM
[6] = target: T1, Amine oxidase [flavin-containing] B; test: Inhibition of human MAO-B expressed in baculovirus infected BTI-TN-5B1-4 cells using p-tyramine as substrate at 100 uM incubated for 15 mins prior to substrate addition measured for 15 mins by Amplex red assay; conditions: BTI-TN-5B1-4, human, 0.25 h

Structure (SMILES) | Ratio IC50 (Homo sapiens) | IC50 [1] | IC50 [2] | inhibition (INH) ([3]; human, bti-tn-5b1-4, 0.25 h, 100 µM) | inhibition (INH) [4] | inhibition (INH) [5] | inhibition at 100 µM ([3]; BTI-TN-5B1-4, human, 0.25 h) | inhibition at 100 µM [6]
C/C(=N/Nc1nc(-c2ccc(F)cc2)cs1)c1ccccc1 | 12 | 351 nM | 4180 nM | – | – | – | – | –
N#Cc1ccc(-c2csc(N/N=C\c3ccncc3)n2)cc1 | > 15 | 6750 nM | – | Not Active | Active | – | – | –
C/C(=N/Nc1nc(-c2ccc(C#N)cc2)cs1)c1ccncc1 | 44 | 436 nM | 19100 nM | – | – | – | – | –
C/C(=N/Nc1nc(-c2ccc(F)cc2)cs1)c1cccnc1 | > 58800 | 1.7 nM | – | – | – | Active | 40% | –
C/C(=N/Nc1nc(-c2ccc(C#N)cc2)cs1)c1ccccn1 | 2.9 | 996 nM | 2850 nM | – | – | – | – | –
C/C(=N/Nc1nc(-c2ccc(F)cc2F)cs1)c1ccccn1 | < 0.03 | – | 3040 nM | – | – | – | – | 40%
